In patent publication US11098058B2, “Bicyclic ketone compounds and methods of use thereof” (Genentech, Inc., priority 2017, dated 2021):
Like-named read-outs stand apart in the source and are kept apart here.

Tests used:
[1] = target: T1, human RIP1 kinase domain (2-375) (Homo sapiens (Human), UniProt Q13546); assay: biochemical; conditions: 50 nM enzyme, 50 μM ATP, 2 hours incubation
Protocol: (§1) RIP1 Kinase Inhibition Assays (Biochemical Assay)
(§2) The ability of the receptor interacting protein kinase (RIPK1) to catalyze the hydrolysis of adenosine-5′-triphosphate (ATP) is monitored using the Transcreener ADP (adenosine-5′-diphosphate) assay (BellBrook Labs). Purified human RIP1 kinase domain (2-375) (50 nM) derived from a baculovirus-infected insect cell expression system is incubated with test compounds for 2 hours in 50 mM Hepes buffer (pH 7.5) containing 30 mM MgCl2, 1 mM dithiothreitol, 50 μM ATP, 0.002% Brij-35, and 0.5% dimethyl sulfoxide (DMSO). […] The tracer bound to the antibody is displaced by the ADP generated during the RIP1K reaction, which causes a decrease in fluorescence polarization that is measured by laser excitation at 633 nm with a FP microplate reader M1000. Fractional activity was plotted against test article concentration. Using Genedata Screener software (Genedata; Basel, Switzerland), the data were fit to the tight-binding apparent inhibition constant (Ki^app) Morrison equation [Williams, J. W. and Morrison, J. F. (1979) The kinetics of reversible tight-binding inhibition. […] The following equation was used to calculate fractional activity and Ki^app:
(§3) [formula] where [E]T and [I]T are the total concentrations of active enzyme and test article, respectively.

[2] = target: T1, human RIP1 kinase domain (2-375); conditions: 50 nM enzyme, 50 μM ATP, 2 hours incubation
Protocol: as §1, §2, §3

[3] = RIP1 kinase inhibition, tight-binding apparent Ki
[4] = tight-binding apparent inhibition constant (Ki app, Morrison equation)

T1 sequence (Q13546 2-375): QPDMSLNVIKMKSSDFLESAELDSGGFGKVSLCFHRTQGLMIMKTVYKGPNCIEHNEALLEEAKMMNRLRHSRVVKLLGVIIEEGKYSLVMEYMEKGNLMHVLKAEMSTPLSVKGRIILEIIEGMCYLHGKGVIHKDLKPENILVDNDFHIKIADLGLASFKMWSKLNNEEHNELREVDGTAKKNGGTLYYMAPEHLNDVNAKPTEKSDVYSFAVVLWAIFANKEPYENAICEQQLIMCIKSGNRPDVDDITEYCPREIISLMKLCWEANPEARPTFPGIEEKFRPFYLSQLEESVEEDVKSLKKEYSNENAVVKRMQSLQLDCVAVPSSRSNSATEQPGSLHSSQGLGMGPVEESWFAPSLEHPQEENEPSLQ

Row | Structure (SMILES) | Ki [1, 3] [nM] | other results
1 | O=C(c1nc2n(n1)[C@H](c1ccccc1)C[C@@H]2F)C1CCOC1 (mixture of isomers) [Example 130, [rac-(5S,7S)-7-fluoro-5-phenyl-6,7-dihydro-5H-pyrrolo[1,2-b][1,2,4]triazol-2-yl]-tetrahydrofuran-3-yl-methanone] | 8 | 
2 | O=C(c1nc2n(n1)[C@H](c1ccccc1)C[C@@H]2F)[C@H]1CCOC1 (racemic) [Example 131, [rac-(5S,7S)-7-fluoro-5-phenyl-6,7-dihydro-5H-pyrrolo[1,2-b][1,2,4]triazol-2-yl]-[rac-(3S)-tetrahydrofuran-3-yl]methanone] | < 5 | 
3 | O=C(c1nc2n(n1)[C@H](c1ccccc1)C[C@@H]2F)[C@@H]1CCOC1 (racemic) [Example 132, [rac-(5S,7S)-7-fluoro-5-phenyl-6,7-dihydro-5H-pyrrolo[1,2-b][1,2,4]triazol-2-yl]-[rac-(3R)-tetrahydrofuran-3-yl]methanone] | < 5 | 
4 | COCC(C)(C)C(=O)c1nc2n(n1)[C@H](c1ccccc1)C[C@@H]2F (racemic) [Example 133, 3-methoxy-2,2-dimethyl-1-[rac-(5S,7S)-7-fluoro-5-phenyl-6,7-dihydro-5H-pyrrolo[1,2-b][1,2,4]triazol-2-yl]propan-1-one] | < 5 | 
5 | O=C(c1nc2n(n1)[C@H](c1ccccc1)C[C@@H]2F)[C@H](O)C(F)(F)F (racemic) [Example 134, rac-(2S)-3,3,3-trifluoro-2-hydroxy-1-[rac-(5S,7S)-7-fluoro-5-phenyl-6,7-dihydro-5H-pyrrolo[1,2-b][1,2,4]triazol-2-yl]propan-1-one] | 220 | 
6 | O=C(CC1CCCCO1)c1nc2n(n1)[C@H](c1ccccc1)C[C@@H]2F (mixture of isomers) [Example 135, 1-[rac-(5S,7S)-7-fluoro-5-phenyl-6,7-dihydro-5H-pyrrolo[1,2-b][1,2,4]triazol-2-yl]-2-tetrahydropyran-2-yl-ethanone] | 180 | 
7 | O=C(CC1CCOCC1)c1nc2n(n1)[C@H](c1ccccc1)C[C@@H]2F (racemic) [Example 136, 1-[rac-(5S,7S)-7-fluoro-5-phenyl-6,7-dihydro-5H-pyrrolo[1,2-b][1,2,4]triazol-2-yl]-2-tetrahydropyran-4-yl-ethanone] | 32 | 
8 | C[C@@]1(C(=O)c2nc3n(n2)[C@H](c2ccccc2)C[C@@H]3F)CCOC1 (racemic) [Example 137, [rac-(5S,7S)-7-fluoro-5-phenyl-6,7-dihydro-5H-pyrrolo[1,2-b][1,2,4]triazol-2-yl]-[rac-(3R)-3-methyltetrahydrofuran-3-yl]methanone] | < 5 | 
9 | C[C@]1(C(=O)c2nc3n(n2)[C@H](c2ccccc2)C[C@@H]3F)CCOC1 (racemic) [Example 138, [rac-(5S,7S)-7-fluoro-5-phenyl-6,7-dihydro-5H-pyrrolo[1,2-b][1,2,4]triazol-2-yl]-[rac-(3S)-3-methyltetrahydrofuran-3-yl]methanone] | < 5 | 
10 | O=C(c1nc2n(n1)[C@H](c1ccccc1)C[C@@H]2F)[C@@H]1C[C@@H]2CC[C@H]1O2 (racemic) [Example 139, [rac-(5S,7S)-7-fluoro-5-phenyl-6,7-dihydro-5H-pyrrolo[1,2-b][1,2,4]triazol-2-yl]-[rac-(1R,2R,4S)-7-oxabicyclo[2.2.1]heptan-2-yl]methanone] | 140 | 
11 | O=C(COC(F)(F)F)c1nc2n(n1)[C@H](c1ccccc1)C[C@@H]2F (racemic) [Example 142, 1-[rac-(5S,7S)-7-fluoro-5-phenyl-6,7-dihydro-5H-pyrrolo[1,2-b][1,2,4]triazol-2-yl]-2-(trifluoromethoxy)ethanone] | 9 | 
12 | O=C(c1nc2n(n1)[C@H](c1ccccc1)C[C@@H]2F)[C@@]12COC[C@@H]1C2 (racemic) [Example 143, [rac-(5S,7S)-7-fluoro-5-phenyl-6,7-dihydro-5H-pyrrolo[1,2-b][1,2,4]triazol-2-yl]-[rac-(1R,5R)-3-oxabicyclo[3.1.0]hexan-1-yl]methanone] | < 5 | 
13 | O=C(c1nc2n(n1)[C@H](c1ccccc1)C[C@@H]2F)[C@]12COC[C@H]1C2 (racemic) [Example 144, [rac-(5S,7S)-7-fluoro-5-phenyl-6,7-dihydro-5H-pyrrolo[1,2-b][1,2,4]triazol-2-yl]-[rac-(1S,5S)-3-oxabicyclo[3.1.0]hexan-1-yl]methanone] | 230 | 
14 | O=C(c1nc2n(n1)[C@H](c1ccccc1)C[C@@H]2F)[C@H]1C[C@@H]1C(F)(F)F (racemic) [Example 160, [rac-(5S,7S)-7-fluoro-5-phenyl-6,7-dihydro-5H-pyrrolo[1,2-b][1,2,4]triazol-2-yl]-[rac-(1S,2S)-2-(trifluoromethyl)cyclopropyl]methanone] | 3 | 
15 | O=C(c1nc2n(n1)[C@H](c1ccccc1)C[C@@H]2F)[C@@H]1C[C@H]1C(F)(F)F (racemic) [Example 161, [rac-(5S,7S)-7-fluoro-5-phenyl-6,7-dihydro-5H-pyrrolo[1,2-b][1,2,4]triazol-2-yl]-[rac-(1R,2R)-2-(trifluoromethyl)cyclopropyl]methanone] | 50 | 
16 | O=C(c1nc2n(n1)[C@H](c1ccccc1)C[C@@H]2F)[C@H]1CC12CC2 (racemic) [Example 162, [rac-(5S,7S)-7-fluoro-5-phenyl-6,7-dihydro-5H-pyrrolo[1,2-b][1,2,4]triazol-2-yl]-[rac-(2S)-spiro[2.2]pentan-2-yl]methanone] | 16 | 
17 | O=C(c1nc2n(n1)[C@H](c1ccccc1)C[C@@H]2F)[C@@H]1CC12CC2 (racemic) [Example 163, [rac-(5S,7S)-7-fluoro-5-phenyl-6,7-dihydro-5H-pyrrolo[1,2-b][1,2,4]triazol-2-yl]-[rac-(2R)-spiro[2.2]pentan-2-yl]methanone] | 4 | 
18 | CCC(=O)c1cc2n(n1)CC[C@H]2c1ccccc1 (single isomer, unassigned) [Example 23] |  | Ki [2, 4]: 2180 nM
19 | CCC(=O)c1cc2n(n1)CC[C@@H]2c1ccccc1 (single isomer, unassigned) [Example 24] |  | Ki [2, 4]: > 10000 nM

Row | Structure (SMILES) | Ki [1, 3] [nM] | other results
20 | CC1(C(=O)c2nc3n(n2)[C@H](c2ccccc2)C[C@@H]3F)COC1 (single isomer, unassigned) [Example 54] |  | Ki [2, 4]: 28 nM
21 | CC1(C(=O)c2nc3n(n2)[C@@H](c2ccccc2)C[C@H]3F)COC1 (single isomer, unassigned) [Example 55] |  | Ki [2, 4]: > 10000 nM
22 | O=C(c1nc2n(n1)[C@H](c1ccccc1)C[C@@H]2F)C1(F)CC1 (single isomer, unassigned) [Example 61] |  | Ki [1, 4]: 0.3 nM
23 | O=C(c1nc2n(n1)[C@H](c1ccccc1F)C[C@@H]2F)C1CC1 (single isomer, unassigned) [Example 62] |  | Ki [2, 3]: 4 nM
24 | O=C(c1nc2n(n1)[C@@H](c1ccccc1)C[C@H]2F)C1CC(F)(F)C1 (single isomer, unassigned) [Example 64] |  | Ki [2, 3]: 780 nM
25 | O=C(c1nc2n(n1)[C@H](c1ccccc1)C[C@@H]2F)C1(CO)CC1 (single isomer, unassigned) [Example 72] |  | Ki [2, 3]: 4.9 nM
26 | O=C(c1nc2n(n1)[C@H](c1ccccc1)C[C@@H]2F)C1CC(F)(F)C1 (single isomer, unassigned) [Example 73] |  | Ki [2, 3]: 3.4 nM
27 | O=C(c1nc2n(n1)[C@H](c1ccccc1)C[C@@H]2F)C1CC2(CC2)C1 (single isomer, unassigned) [Example 76] |  | Ki [2, 3]: 3.5 nM
28 | [2H][C@]1(F)C[C@@H](c2ccccc2)n2nc(C(=O)C3CC3)nc21 (single isomer, unassigned) [Example 103] | 7.9 | 
29 | [2H][C@H]1C[C@@H](c2ccccc2)n2nc(C(=O)C3CC3)nc21 (single isomer, unassigned) [Example 111] | 8.2 | 
30 | [2H]C1([2H])C[C@@H](c2ccccc2)n2nc(C(=O)C3CC3)nc21 (single isomer, unassigned) [Example 114] | 18 | 
31 | CC(C)(O)C(=O)c1nc2n(n1)[C@@H](c1ccccc1)C[C@H]2F (stereo in doubt) [Example 5, 2-hydroxy-2-methyl-1-[rac-(5R,7R)-7-fluoro-5-phenyl-6,7-dihydro-5H-pyrrolo[1,2-b][1,2,4]triazol-2-yl]propan-1-one] |  | Ki [1, 4]: 23 nM
32 | O=C(c1nc2n(n1)[C@@H](c1ccccc1)C[C@H]2F)C1CC1 (stereo in doubt) [Example 35, cyclopropyl-[rac-(5R,7R)-7-fluoro-5-phenyl-6,7-dihydro-5H-pyrrolo[1,2-b][1,2,4]triazol-2-yl]methanone] |  | Ki [1, 4]: > 9400 nM
33 | CC(C)(C)C(=O)c1nc2n(n1)[C@H](c1ccccc1)C[C@@H]2F (stereo in doubt) [Example 37, 2,2-dimethyl-1-[rac-(5S,7S)-7-fluoro-5-phenyl-6,7-dihydro-5H-pyrrolo[1,2-b][1,2,4]triazol-2-yl]propan-1-one] |  | Ki [1, 4]: 2830 nM
34 | CC(C)(C)C(=O)c1nc2n(n1)[C@@H](c1ccccc1)C[C@H]2F (stereo in doubt) [Example 38, 2,2-dimethyl-1-[rac-(5R,7R)-7-fluoro-5-phenyl-6,7-dihydro-5H-pyrrolo[1,2-b][1,2,4]triazol-2-yl]propan-1-one] |  | Ki [1, 4]: 4.17 nM
35 | Cn1cc(C(=O)c2nc3n(n2)[C@@H](c2ccccc2)C[C@H]3F)cn1 (stereo in doubt) [Example 39, (1-methylpyrazol-4-yl)-[rac-(5R,7R)-7-fluoro-5-phenyl-6,7-dihydro-5H-pyrrolo[1,2-b][1,2,4]triazol-2-yl]methanone] |  | Ki [1, 4]: 225 nM
36 | Cn1cc(C(=O)c2nc3n(n2)[C@H](c2ccccc2)C[C@@H]3F)cn1 (stereo in doubt) [Example 40, (1-methylpyrazol-4-yl)-[rac-(5S,7S)-7-fluoro-5-phenyl-6,7-dihydro-5H-pyrrolo[1,2-b][1,2,4]triazol-2-yl]methanone] |  | Ki [1, 4]: > 10000 nM
37 | Cn1cc(C(=O)c2nc3n(n2)[C@@H](c2ccccc2)C[C@H]3F)cn1 (stereo in doubt) [Example 48, (1-methylpyrazol-4-yl)-[rac-(5R,7R)-7-fluoro-5-phenyl-6,7-dihydro-5H-pyrrolo[1,2-b][1,2,4]triazol-2-yl]methanone] |  | Ki [1, 4]: 416 nM
